What all share (format): in vitro ADME
The nature of data set [1]: Metabolic stability in pooled human liver microsomes. Particulars: pooled human liver microsomes 0.5 mg/mL, 1 μM compound, 37° C. Here is the method: Pooled human liver microsomes in PBS at a concentration of 0.5 mg/mL was incubated with or without 1 mM NADPH for 70 min at 37° C. Test compound was added after 10 minutes to a final concentration of 1 μM. Samples were withdrawn at 0, 5, 15 and 60 minutes and added to test tubes containing acetonitrile, to stop the reaction, and with terfenadine, used as internal standard. After centrifugation at 10 000×g for 5 minutes the supernatant was diluted 1:1 with 1% formic acid. Samples were separated on a reverse phase column and detected by triple quadrupole MSMS (Agilant model 6540). The concentration of the parent compound at the different time points was measured with an external standard curve using terfenadine as internal standard and the initial metabolic rate in the presence or absence of NADPH calculated.
Background: Liver microsomes are vesicles of endoplasmic reticulum, rich in cytochrome P450 enzymes.

Data set [2] addresses T1, CYP3A4 (Homo sapiens, UniProt P08684). Kind of data set: CYP inhibition in human liver microsomes (midazolam). Further details: using isoform-specific substrates incubated with human liver microsomes; tissue Eurofins protocol ITEMG232; host or cells: human liver microsomes. The note with it: probe midazolam, substrate midazolam, read-out: CYP3A4 midazolam Inh %. Here is the method: (§1) The following substrates were used; CYP1 Å phenacetin, […] bupropion, CYP2C8 paclitaxel and amodiaquine, CYP2C9 diclofenac, CYP2C19 omeprazole, CYP2D6 dextromethorphan, CYP3 Å midazolam and testosterone.
(§2) At the end of the incubation, the formation of metabolite was monitored by HPLC-MS/MS as the peak area response.

For the next data set, the target named is T2, CYP1A2 (Homo sapiens, UniProt P05177).
T2 construct: using isoform-specific substrates incubated with human liver microsomes; tissue Eurofins protocol ITEMG232; host or cells: human liver microsomes
Put plainly: in vitro. The note with it: human liver microsomes, substrate phenacetin, read-out: CYP1A2 Inh %. Here is the method:
as §1, §2

Another data set concerns CYP3A4&5. Kind of data set: CYP inhibition in human liver microsomes (testosterone). The note with it: probe testosterone, substrate testosterone, read-out: CYP3A4&5 testosterone Inh %. How it is done:
as §1, §2

The next data set deals with T3, CYP2D6 (Homo sapiens, UniProt P10635).
T3 construct: tissue Eurofins protocol ITEMG232; host or cells: human liver microsomes
Put plainly: CYP inhibition in human liver microsomes. The note with it: probe dextromethorphan, substrate dextromethorphan, read-out: CYP2D6 Inh %. Here is the method:
as §1, §2

A further data set has as its target T4, CYP2B6 (Homo sapiens, UniProt P20813).
T4 construct: using isoform-specific substrates incubated with human liver microsomes; tissue Eurofins protocol ITEMG232; host or cells: human liver microsomes
T4 sequence (P20813 1-491): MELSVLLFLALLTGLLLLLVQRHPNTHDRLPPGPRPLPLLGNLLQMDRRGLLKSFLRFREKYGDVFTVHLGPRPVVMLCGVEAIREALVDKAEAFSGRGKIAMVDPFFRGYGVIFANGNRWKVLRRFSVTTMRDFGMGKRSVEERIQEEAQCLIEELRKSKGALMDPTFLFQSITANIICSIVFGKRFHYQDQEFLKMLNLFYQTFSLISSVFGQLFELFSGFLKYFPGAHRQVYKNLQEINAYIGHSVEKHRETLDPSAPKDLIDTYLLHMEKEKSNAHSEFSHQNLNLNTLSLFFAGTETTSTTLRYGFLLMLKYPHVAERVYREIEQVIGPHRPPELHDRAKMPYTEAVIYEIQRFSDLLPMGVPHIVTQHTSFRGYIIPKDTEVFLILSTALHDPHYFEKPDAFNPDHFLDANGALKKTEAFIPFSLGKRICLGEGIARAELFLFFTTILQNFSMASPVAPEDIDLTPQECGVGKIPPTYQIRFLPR
Put plainly: CYP inhibition in human liver microsomes. Particulars: probe bupropion, substrate bupropion, read-out: CYP2B6 Inh %. How it is done: as §1, §2

The target in a further data set is T5, CYP2C8 (Homo sapiens, UniProt P10632).
T5 construct: using isoform-specific substrates incubated with human liver microsomes; tissue Eurofins protocol ITEMG232; host or cells: human liver microsomes
T5 sequence (P10632 1-490): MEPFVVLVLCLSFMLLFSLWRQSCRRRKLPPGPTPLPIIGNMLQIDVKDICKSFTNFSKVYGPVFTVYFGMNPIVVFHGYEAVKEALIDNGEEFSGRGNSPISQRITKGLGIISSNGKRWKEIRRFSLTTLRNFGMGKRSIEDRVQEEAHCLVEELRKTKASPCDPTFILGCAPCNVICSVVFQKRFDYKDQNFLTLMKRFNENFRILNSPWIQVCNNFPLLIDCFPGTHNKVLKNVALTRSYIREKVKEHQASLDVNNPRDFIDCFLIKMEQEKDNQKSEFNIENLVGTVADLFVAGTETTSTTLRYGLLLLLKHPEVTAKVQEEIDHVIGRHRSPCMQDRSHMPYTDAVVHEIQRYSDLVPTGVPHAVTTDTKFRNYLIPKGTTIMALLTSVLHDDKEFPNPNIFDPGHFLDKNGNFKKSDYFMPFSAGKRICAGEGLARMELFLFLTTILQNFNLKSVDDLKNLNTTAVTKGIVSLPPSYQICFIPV
Kind of data set: CYP inhibition in human liver microsomes. The note with it: probe paclitaxel and amodiaquine, substrates paclitaxel and amodiaquine, read-out: CYP2C8 Inh %. How it is done:
as §1, §2

Another data set deals with T6, CYP2C19 (Homo sapiens, UniProt P33261).
T6 construct: using isoform-specific substrates incubated with human liver microsomes; tissue Eurofins protocol ITEMG232; host or cells: human liver microsomes
Put plainly: CYP inhibition in human liver microsomes. The note with it: probe omeprazole, substrate omeprazole, read-out: CYP2C19 Inh %. How it is done:
as §1, §2

Data set [3] deals with T7, CYP2C9 (Homo sapiens, UniProt P11712). Put plainly: CYP inhibition in human liver microsomes. Further details: using isoform-specific substrates incubated with human liver microsomes; tissue Eurofins protocol ITEMG232; host or cells: human liver microsomes. Particulars: probe diclofenac, substrate diclofenac, read-out: CYP2C9 Inh %. Here is the method:
as §1, §2

The nature of data set [4]: Metabolic hydrolysis found during development of C21.
In data set [5] the target is T1, CYP3A4. Kind of data set: CYP inhibition found during development of C21.
The target in data set [6] is T7, CYP2C9. Put plainly: CYP inhibition found during development of C21.
[7] abbreviates: with 1 mM NADPH, read-out: T1/2, + NaDPH.
Where [8] appears, read: without NADPH, read-out: T1/2, no NaDPH.

Read-outs that look alike come from different tables or passages of the source.

T7 sequence (P11712 whole entry, canonical isoform): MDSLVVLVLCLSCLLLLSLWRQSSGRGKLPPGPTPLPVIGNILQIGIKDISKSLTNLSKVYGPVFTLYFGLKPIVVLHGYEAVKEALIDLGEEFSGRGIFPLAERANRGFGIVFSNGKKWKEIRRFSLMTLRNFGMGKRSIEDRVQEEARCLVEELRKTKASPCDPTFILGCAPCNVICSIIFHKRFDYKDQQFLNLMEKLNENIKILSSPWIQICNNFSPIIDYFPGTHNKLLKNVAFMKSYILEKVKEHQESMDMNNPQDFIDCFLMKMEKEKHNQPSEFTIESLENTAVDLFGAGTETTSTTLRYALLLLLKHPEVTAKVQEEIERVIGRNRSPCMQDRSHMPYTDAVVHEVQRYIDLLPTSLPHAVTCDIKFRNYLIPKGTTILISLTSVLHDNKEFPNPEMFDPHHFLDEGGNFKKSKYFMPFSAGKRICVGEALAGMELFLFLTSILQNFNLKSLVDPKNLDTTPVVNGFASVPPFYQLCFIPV
T1 sequence (P08684 whole entry, canonical isoform): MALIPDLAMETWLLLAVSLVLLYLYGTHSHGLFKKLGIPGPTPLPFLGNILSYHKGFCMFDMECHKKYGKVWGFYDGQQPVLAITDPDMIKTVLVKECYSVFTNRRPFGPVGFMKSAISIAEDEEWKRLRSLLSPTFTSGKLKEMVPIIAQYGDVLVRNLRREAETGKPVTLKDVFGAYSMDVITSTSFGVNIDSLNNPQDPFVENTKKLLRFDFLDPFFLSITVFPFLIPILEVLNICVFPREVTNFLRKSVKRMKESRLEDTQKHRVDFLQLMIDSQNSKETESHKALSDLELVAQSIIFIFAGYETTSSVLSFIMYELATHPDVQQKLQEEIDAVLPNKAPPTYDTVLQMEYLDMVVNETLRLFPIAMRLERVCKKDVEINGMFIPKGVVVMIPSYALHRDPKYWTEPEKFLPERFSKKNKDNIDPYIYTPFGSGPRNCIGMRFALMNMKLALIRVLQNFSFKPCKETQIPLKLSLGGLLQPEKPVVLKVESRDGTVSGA
T2 sequence (P05177 whole entry, canonical isoform): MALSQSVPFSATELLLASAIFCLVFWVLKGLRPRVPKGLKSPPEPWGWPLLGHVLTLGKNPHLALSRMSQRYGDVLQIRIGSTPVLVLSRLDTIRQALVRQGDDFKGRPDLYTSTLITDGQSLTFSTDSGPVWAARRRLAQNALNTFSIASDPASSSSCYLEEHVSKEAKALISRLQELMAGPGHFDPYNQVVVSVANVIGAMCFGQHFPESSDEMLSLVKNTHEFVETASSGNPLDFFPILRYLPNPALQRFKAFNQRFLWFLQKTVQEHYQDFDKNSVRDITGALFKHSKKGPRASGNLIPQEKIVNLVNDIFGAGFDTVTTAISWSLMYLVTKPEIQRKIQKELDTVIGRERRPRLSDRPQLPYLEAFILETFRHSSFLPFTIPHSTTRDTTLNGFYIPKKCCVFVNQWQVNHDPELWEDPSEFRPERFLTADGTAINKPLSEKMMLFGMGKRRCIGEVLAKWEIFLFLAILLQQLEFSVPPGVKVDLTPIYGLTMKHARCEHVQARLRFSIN
T3 sequence (P10635 whole entry): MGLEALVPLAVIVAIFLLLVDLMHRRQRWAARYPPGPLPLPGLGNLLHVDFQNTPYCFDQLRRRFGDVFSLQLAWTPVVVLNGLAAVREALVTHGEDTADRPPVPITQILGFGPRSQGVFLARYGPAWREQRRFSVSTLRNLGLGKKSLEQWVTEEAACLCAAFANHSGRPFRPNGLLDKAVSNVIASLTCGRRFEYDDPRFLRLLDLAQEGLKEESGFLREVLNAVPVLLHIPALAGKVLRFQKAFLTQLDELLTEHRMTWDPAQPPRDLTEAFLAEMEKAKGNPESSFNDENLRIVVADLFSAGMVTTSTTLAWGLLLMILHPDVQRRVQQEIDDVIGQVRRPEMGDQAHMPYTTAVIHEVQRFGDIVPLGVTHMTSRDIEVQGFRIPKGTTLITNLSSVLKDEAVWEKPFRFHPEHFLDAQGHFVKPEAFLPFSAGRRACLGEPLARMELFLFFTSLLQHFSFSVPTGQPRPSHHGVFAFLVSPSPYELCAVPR
T6 sequence (P33261 whole entry, canonical isoform): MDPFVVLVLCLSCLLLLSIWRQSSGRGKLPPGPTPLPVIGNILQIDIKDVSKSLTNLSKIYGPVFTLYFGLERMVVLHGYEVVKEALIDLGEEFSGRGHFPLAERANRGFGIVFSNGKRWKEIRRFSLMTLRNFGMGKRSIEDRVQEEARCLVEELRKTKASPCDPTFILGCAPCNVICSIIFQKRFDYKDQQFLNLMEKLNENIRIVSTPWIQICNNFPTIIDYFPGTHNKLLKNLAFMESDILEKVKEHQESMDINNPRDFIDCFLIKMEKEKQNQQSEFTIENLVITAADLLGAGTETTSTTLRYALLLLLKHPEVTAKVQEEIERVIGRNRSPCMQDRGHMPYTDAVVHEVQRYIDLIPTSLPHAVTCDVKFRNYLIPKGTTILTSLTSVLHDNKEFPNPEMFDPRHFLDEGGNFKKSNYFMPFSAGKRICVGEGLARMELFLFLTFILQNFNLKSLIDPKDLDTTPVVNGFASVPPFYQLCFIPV

Turning to `Cc1nccn1Cc1ccc(-c2cc(CC(C)C)sc2S(=O)(=O)Nc2ncccn2)cc1Cl` [Example 1, 3-[3-Chloro-4-[(2-methylimidazol-1-yl)methyl]phenyl]-5-isobutyl-N-pyrimidin-2-yl-thiophene-2-sulfonamide], the half-life at 1 μM in data set [1] (setting [7]) and in [1] (setting [8]) was > 1 h in each case. In addition, the inhibition at 10 µM worked out at 40.1% on CYP3A4 [2]; 12.3% at CYP1A2; 40.1% in the data set on CYP3A4&5; 28.3% at CYP2D6; 22.4% at CYP2B6; 33.9% on CYP2C8. For the same compound, the inhibition at 10 µM at CYP2C19 was 72.7%; at CYP2C9 [3] it was 49.4%.
Take `Cc1nccn1Cc1ccc(-c2cc(CC(C)C)sc2S(=O)(=O)Nc2ccccn2)cc1Cl` [Example 2, 3-[3-Chloro-4-[(2-methylimidazol-1-yl)methyl]phenyl]-5-isobutyl-N-(2-pyridyl)thiophene-2-sulfonamide]: the values for the half-life at 1 μM in data set [1] (setting [7]) and in data set [1] (setting [8]) were 1 h and > 1 h, respectively.
On the same counts, the results for `Cc1cc(-c2cc(CC(C)C)sc2S(=O)(=O)Nc2ccccn2)ccc1Cn1ccnc1C` [Example 3, 5-Isobutyl-3-[3-methyl-4-[(2-methylimidazol-1-yl)methyl]phenyl]-N-(2-pyridyl)thiophene-2-sulfonamide] are 0.883 h and > 1 h.
For the compound `CCCCOC(=O)NS(=O)(=O)c1sc(CC(C)C)cc1-c1ccc(Cn2ccnc2)cc1` [Example C21, N-butyloxycarbonyl-3-(4-imidazol-1-ylmethylphenyl)-5-isobutylthiophene-2-sulfon-amide], the “metabolic hydrolysis (in words)” value in data set [4] was “rapidly hydrolysed to an inactive sulfonamide metabolite”. Also, the “inhibition of CYP 3A4 (in words)” value on CYP3A4 [5] is listed as “potent inhibitor”. The inhibition at 10 µM with CYP3A4&5 is 94%. For the same compound, the “inhibition of CYP 2C9 (in words)” value against CYP2C9 [6] is “potent inhibitor”.
